Laboratory results: US20250127913A1, “BIFUNCTIONAL FOLATE RECEPTOR BINDING COMPOUNDS” (LYCIA THERAPEUTICS, INC., priority 2021, published 2025)

Legend:
[1] = biological target: TNFα trimer (Homo sapiens, UniProt P01375); experiment: SPR binding kinetics of compounds to TNFα trimer; settings: class symbols
Protocol: Streptavidin 100 μg/mL Streptavidin (Invitrogen Cat #: 434302) diluted in 10 mM sodium acetate, pH 4.5) was immobilized to both the reference and active surfaces as described in Example 51. The surfaces were conditioned with three injections of running Buffer (10 mM HEPES, 150 mMNaCl, 0.05% T20, pH 7.5, 2% DMSO) at a flow rate of 10 μL/min, Contact time: 60 s. Flow rate: 10 μL/min. The active surface was treated with biotinylated linked TNFα trimer 20 μg/mL diluted in running buffer at a flow rate of 5 μL/min contact time: 600 s, yielding a final response of ˜3000 RU. Example compounds were then serially diluted 1:1 in running buffer (10 mM HEPES, 150 mM NaCl, 0.05% T20, pH 7.5, 2% DMSO) from 30 uM to 937.5 nM and flowed over the active and reference surfaces from lowest concentration to greatest concentration in the single-cycle kinetics format, and then allowed to dissociate in running buffer for 7200 s, at 30 μL/min. Sensorgrams were solvent corrected, double-referenced, and the data fitted and analyzed in Biacore Insight Evaluation Software Version 3.0.11.15423.

[2] = test system: THP-1 cells; experiment: Compound mediated uptake of TNFα-pHrodo in THP-1 cells (flow cytometry); format: cell-based; set-up: key to Uptake in THP1 cells (run) 2 / Uptake in THP1 cells (run) 3 / Uptake in THP1 cells (run) 4: + = ΔMFI less than that of I-17; ++ = ΔMFI ≈ to that of I-17; +++ = ΔMFI greater than that of I-17; settings: ΔMFI compared with I-17, uptake at 10 μM
[3] = test system: TNFα trimer complex to folate receptor (FOLR2); experiment: SPR co-engagement of compound-TNFα trimer complex to folate receptor; settings: TNFα + 10 nM compound binding FOLR2
Protocol: The active (Flow cell 2) surfaces of a Cytiva CM5 Series S Sensor Chip functionalized with FOLR2 as described in Example 58. Example compounds were diluted to 10 nM with 50 and 100 nM TNFα single chain trimer or 150 nM and 300 nM TNFα native monomer in running buffer (10 mM HEPES, 150 mM NaCl, 0.05% T20, pH 7.5, 2% DMSO), allowed to incubate for 5 hours at 25° C. and then flowed over the active and reference surfaces for 110 s, and then allowed to dissociate in running buffer for 600 s, at a flow rate of 30 μL/min. The FOLR2 immobilized active surface and the reference surface were regenerated with a 30 s pulse of 4M MgCl2 at 30 μL/min then allowed to equilibrate 240 s. Sensorgrams were solvent corrected, double-referenced, and the data fitted and analyzed in Biacore Insight Evaluation Software Version 3.0.11.15423.

[4] = biological target: FOLR2 (Homo sapiens (Human), UniProt P14207); experiment: SPR binding kinetics of compounds to folate receptor (FOLR2 immobilized on CM5 chip)
FOLR2, sequence (P14207 17-255): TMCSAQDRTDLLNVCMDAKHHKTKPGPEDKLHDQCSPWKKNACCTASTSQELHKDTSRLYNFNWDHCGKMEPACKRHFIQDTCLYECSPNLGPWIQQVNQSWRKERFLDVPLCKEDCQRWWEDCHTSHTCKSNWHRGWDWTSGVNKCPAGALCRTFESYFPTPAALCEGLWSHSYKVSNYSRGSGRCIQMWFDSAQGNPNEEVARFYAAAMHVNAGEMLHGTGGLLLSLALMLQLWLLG
Protocol: A Biacore 8K+ was used to measure the association and dissociation rates of example compounds to FOLR2 (Acro Biosystems, Cat: F02-H5223-100 μg). Briefly, FOLR2 was reconstituted according to the manufacture's instructions to 200 μg/mL. Both the active and reference surfaces of a Cytiva CM5 Series S Sensor Chip were activated with a 1:1 mixture of 400 mM EDC and 100 mM NHS for 420 s at 10 μL/min. 25 μg/mL FOLR2 diluted in Sodium Acetate pH 5.5 was injected on the active channel (Flow Cell 2) for 420 s at 10p/min. Both the reference and active surfaces were then capped with 1M ethanolamine, pH 8.5 for 420 s, achieving an immobilization level of ˜4200 RU. Example compounds were serially diluted 1:1 in running buffer (10 mM HEPES, 150 mM NaCl, 0.05% T20, pH 7.5, 2% DMSO) from 100 nM to 3.125 nM and flowed over the active and reference surfaces for 120 s, and then allowed to dissociate in running buffer for 600 s, at 30 uL/min. The FOLR2 immobilized active surface and the reference surface were regenerated with a 30 s pulse of Sodium Acetate pH 5.5 at 30 μL/min. Sensorgrams were solvent corrected, double-referenced, and the data fitted and analyzed in Biacore Insight Evaluation Software Version 3.0.11.15423.

[5] = biological target: T1, folate receptor beta (Homo sapiens (Human), UniProt P14207); experiment: Folate receptor binding assay (fluorescence polarization); settings: 2.5 nM folate receptor beta, 2 nM FR-Cy probe, 2 hr incubation; read-out: FOLR2-FP
T1 sequence (P14207 17-255): as above
Method in brief: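 Fluorescence polarization competition with 2 nM folate–Cy5 probe and 2.5 nM receptor in 20 mM Hepes pH 7.5, 250 mM NaCl, Tween-20, 1% DMSO; 3-fold dilutions, 2 h incubation, ex 620/em 688 nm. Duplicates normalized to DMSO (high) and 1 μM folic acid (low); IC50 from 4-parameter fit.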

[6] = biological target: T1, folate receptor beta; experiment: Folate receptor SPR assay (biotinylated folate receptor beta on streptavidin chip); format: binding; settings: for Rmax: biotinylated folate receptor beta on streptavidin chip; for kd / Kd / kon: multi-cycle kinetics, 25° C., 1:1 model; for Kd: read-out: FOLR2Biotin - SPR Kd; for kon: pH 7.5, read-out: ka
Method in brief: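 Biotinylated receptor captured on a streptavidin SPR chip; multi-cycle kinetics at 25 °C with 8 compound concentrations (2-fold dilutions) in HEPES pH 7.5, 150 mM NaCl, 0.05% Tween 20, 2% DMSO. Association 120 s, dissociation 600 s; binding parameters from 1:1 model fit.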

[7] = test system: THP-1 cells overexpressing FOLR2; experiment: LYTAC mediated uptake of TNFα-Alexa647 in THP-1 WT / FOLR2 overexpressing cells (ΔMFI); format: cell-based; settings: 2 h; for uptake of TNFα compared the no compound control (DMSO): 300 nM-0.137 nM
Protocol: Hetero-bifunctional small molecule LYTACs consisting of a TNFα binding moiety, linker and folate receptor binding moiety were tested to determine if folate receptor can internalize TNFα. THP-1 cells overexpressing FOLR2 were generated by stable transduction with lentivirus encoding FOLR2-IRES-GFP. THP-1 WT and FOLR2 overexpressing cells were maintained in RPMI (Gibco #61870143) with 10% v/v FBS (VWR #89510-188) with 2 mM L-alanyl-L-glutamine dipeptide, 100 units/ml penicillin and 100 μg/ml streptomycin (Gibco #27016021). Stable FOLR2 over-expression cells were mixed at a 50:50 ratio with WT THP-1 cells and seeded in a 96 well plate at 50,000 cells in 100 μl folate-free RPMI (Gibco […]) with 10% v/v FBS, 2 mM L-alanyl-L-glutamine dipeptide, 100 units/ml penicillin and 100 μg/ml streptomycin. In a separate 96 well plate, TNFα/folate hetero-bifunctional small molecules were mixed with unmodified TNFα conjugated with Alexa647 by non-specific lysine chemistry. Small molecule LYTACs at a concentration of 600 nM (2× final concentration) in 100 μl folate-free RPMI+10% FBS were incubated at room temperature for 30 mins. The immune complex was serially diluted 3-fold to produce a dose response range from 300 nM-0.137 nM (final concentration). The TNFα/LYTAC complex mixture was transferred to the plate containing a 50:50 mixture of THP1 WT and FOLR2 over expressing cells and incubated for 2 h at 37° C. with 5% C02. Uptake in WT and FOLR2 overexpressing cells was evaluated by flow cytometry by comparing the median fluorescence intensity of […] in the GFP negative (WT) and GFP positive (FOLR2) populations and was quantified as the difference between the mean fluorescence intensities in the APC channel for the GFP positive and GFP negative populations (ΔMFI).

[8] = biological target: TNFα (Homo sapiens (Human), UniProt P01375); experiment: TNFα binding assay (time-resolved FRET, biotinylated TNFα); settings: 1 nM biotinylated TNFα, 80 nM probe, 16 hr incubation; read-out: TNF-HTRF-biotin
TNFα, sequence (P01375 77-233): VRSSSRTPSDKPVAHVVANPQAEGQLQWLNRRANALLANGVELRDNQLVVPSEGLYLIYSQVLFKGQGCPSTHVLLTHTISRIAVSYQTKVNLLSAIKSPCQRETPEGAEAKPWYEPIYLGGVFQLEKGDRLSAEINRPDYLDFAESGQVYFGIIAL
Method in brief: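 Time-resolved FRET displacement of 80 nM acceptor probe from 1 nM biotinylated TNFα with 0.5 nM streptavidin-Tb in 20 mM Hepes pH 7.5, 10 mM MgCl2, 0.015% Tween-20, 0.05 mg/ml BSA, 2% DMSO. Read (ex 340, em 490/520 nm) after 16 hr. Duplicate dose responses normalized to DMSO and 100 nM reference inhibitor; IC50 by 4-parameter fit.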

[9] = biological target: TNFα and streptavidin immobilized FOL2R (Homo sapiens (Human), UniProt P01375+P14207); experiment: Ternary complex SPR assay; format: binding; settings: 10 nM compound, max response normalized to expected response; for TC 150 nM- tagless TNF Normalized: 150 nM untagged TNF; for TC 300 nM- tagless TNF Normalized: 300 nM untagged TNF
TNFα and streptavidin immobilized FOL2R, sequence (P14207 17-230): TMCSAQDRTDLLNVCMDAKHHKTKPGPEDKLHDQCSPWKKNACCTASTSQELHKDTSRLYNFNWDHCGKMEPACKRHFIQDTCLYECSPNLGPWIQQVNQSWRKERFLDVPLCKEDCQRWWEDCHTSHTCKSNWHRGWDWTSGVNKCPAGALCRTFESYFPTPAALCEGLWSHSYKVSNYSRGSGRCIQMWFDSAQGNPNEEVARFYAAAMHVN
TNFα and streptavidin immobilized FOL2R, sequence (P01375 77-233): as the sequence (P01375 77-233) above
Method in brief: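 Biotinylated folate receptor beta captured at ~1800 RU on a streptavidin chip; untagged TNF preincubated 6 hr at 25° C with 10 nM compound in HEPES pH 7.5, 150 mM NaCl, 0.05% Tween 20, 2% DMSO, then injected (110 s association, 600 s dissociation). Maximum response normalized to maximum expected response per compound.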

TNFα trimer, sequence (P01375 77-233 limits assumed): as the sequence (P01375 77-233) above

| Compound | Kd [1] [nM] | Uptake in THP1 cells (run) 2 [2] | Uptake in THP1 cells (run) 3 [2] | Uptake in THP1 cells (run) 4 ([2]; run 4) | co-engagement / complex formation observed on SPR [3] | Kd [4] [nM] | IC50 [5] [nM] | Rmax [6] [RU] | kd [6] [s⁻¹] | Kd [6] [nM] | kon [6] [M⁻¹ s⁻¹] | uptake of TNFα compared the no compound control (DMSO) [7] | EC50 ([7]; Homo sapiens, ΔMFI FOLR2 overexpressing vs WT THP-1 cells) [nM] | IC50 [8] [nM] | TC 150 nM- tagless TNF Normalized [9] [%] | TC 300 nM- tagless TNF Normalized [9] [%] | TC 60 nM taggless TNF normalized ([9]; 60 nM untagged TNF) [%] |
| --- | --- | --- | --- | --- | --- | --- | --- | --- | --- | --- | --- | --- | --- | --- | --- | --- | --- |
| Cc1nc2ccc(-c3ccc(N4CCN(CCOCCn5cc(COCCOCCOCCOCCNC(=O)CC[C@H](NC(=O)c6ccc(NCc7cnc8nc(N)nc(O)c8n7)cc6)C(=O)O)nn5)CC4)nc3)cn2c1Cc1ccccc1OC(F)F (racemic) [Compound I-22, rac-(R)-18-(4-(((2-amino-4-hydroxypteridin-6-yl)methyl)amino)benzamido)-1-(1-(2-(2-(4-(5-(3-(2-(difluoromethoxy)benzyl)-2-methylimidazo[1,2-a]pyridin-6-yl)pyridin-2-yl)piperazin-1-yl)ethoxy)ethyl)-1H-1,2,3-triazol-4-yl)-15-oxo-2,5,8,11-tetraoxa-14-azanonadecan-19-oic acid] | < 5000 | + | + | + | complex formation observed | 0.3 | – | – | – | – | – | – | – | – | – | – | – |
| Cc1nc2cc(F)c(-c3cnc(OCCCCCn4cc(CNC(=O)CC[C@H](NC(=O)c5ccc(NCc6cnc7nc(N)nc(O)c7n6)cc5)C(=O)O)nn4)nc3)nc2c(N[C@H](C)c2cc(C#N)ccc2F)c1Cl [Compound I-14, N2-(4-(((2-amino-4-hydroxypteridin-6-yl)methyl)amino)benzoyl)-N5-((1-(5-((5-(7-chloro-8-(((R)-1-(5-cyano-2-fluorophenyl)ethyl)amino)-3-fluoro-6-methyl-1,5-naphthyridin-2-yl)pyrimidin-2-yl)oxy)pentyl)-1H-1,2,3-triazol-4-yl)methyl)-L-glutamine] | < 100 | + | ++ | – | complex formation observed | 0.2 | – | – | – | – | – | – | – | – | – | – | – |
| Cc1nc2cc(F)c(-c3cnc(N4CCN(C(=O)COCCOCCOCCOCCOCCOCCn5cc(CC[C@H](NC(=O)c6ccc(OCc7ccc8nc(N)nc(O)c8c7)cc6)C(=O)O)nn5)CC4)nc3)nc2c(N[C@H](C)c2cc(C#N)ccc2F)c1Cl [Compound I-87, (S)-2-(4-((2-amino-4-hydroxyquinazolin-6-yl)methoxy)benzamido)-4-(1-(20-(4-(5-(7-chloro-8-(((R)-1-(5-cyano-2-fluorophenyl)ethyl)amino)-3-fluoro-6-methyl-1,5-naphthyridin-2-yl)pyrimidin-2-yl)piperazin-1-yl)-20-oxo-3,6,9,12,15,18-hexaoxaicosyl)-1H-1,2,3-triazol-4-yl)butanoic acid] | – | – | – | – | – | – | 8 | 18.7 | 0.000692 | 0.035 | 1.97e+07 | dose-dependent uptake of TNFα | 15.3 | 22 | 25.7 | 32.8 | – |
| Cc1nc2cc(F)c(-c3cnc(N4CCN(C(=O)COCCOCCOCCOCCOCCOCCn5cc(CC[C@H](NC(=O)c6ccc(NCc7cnc8nc(N)nc(O)c8n7)cc6)C(=O)O)nn5)CC4)nc3)nc2c(N[C@H](C)c2cc(C#N)ccc2F)c1Cl [Compound I-92] | – | – | – | – | – | – | 7.6 | 17.1 | 8.7e-05 | 0.00867 | 1e+07 | dose-dependent uptake of TNFα | – | 20 | 16.9 | 18.7 | 15.3 |
